Eight molecules from patent US20150306232A1, “HYDROGELATORS COMPRISING D-AMINO ACIDS” (BRANDEIS UNIVERSITY, priority 2012, published 2015) can be followed below.

As a reminder, the IC50 is the concentration at which inhibition is half-maximal.

Each structure is given as a SMILES string. Non-standard residues stand in square brackets, D forms with d. Residues, ends and D or L forms follow the SMILES beside them. *: point of attachment. Paclitaxel(2'-O-succinyl) = CC(=O)O[C@H]1C(=O)[C@@]2(C)[C@H]([C@H](OC(=O)c3ccccc3)[C@]3(O)C[C@H](OC(=O)[C@H](OC(=O)CCC(=O)*)[C@@H](NC(=O)c4ccccc4)c4ccccc4)C(C)=C1C3(C)C)[C@]1(OC(C)=O)CO[C@@H]1C[C@@H]2O; Naproxen = COc1ccc2cc([C@H](C)C(=O)*)ccc2c1; d(pY) = N[C@H](Cc1ccc(OP(=O)(O)O)cc1)C(=O)O; Acetyl(2-naphthyl) = O=C(Cc1ccc2ccccc2c1)*

Data set [1] can be described thus: enzymatic hydrogelation with ALP. Format: physicochemical. The following applies: water, pH 7.4. As for the experimental part:
To investigate the enzymatic hydrogelation of the D-peptidic precursor 11b, we prepared a series of hydrogels formed by using ALP to treat 11b at different concentrations. After dissolving 1.0, 2.0, 3.0, 4.0, and 5.0 mg of 11b in 0.5 mL of water (pH 7.6), respectively, we obtained clear solutions of 11b with different concentrations. The treatment of the solutions of 11b with ALP (1.0 U/mL) afforded the molecules of hydrogelator 12b, which are less soluble than 11b and thus self-assemble in water to form hydrogels when the concentrations of 12b are sufficient.
All the compounds were dissolved in de-ionized water. We then adjusted pH of the solutions carefully adding 1 M of NaOH and 1 M of HCl and measured the values by pH paper (pH 6.0-8.0). After prepared clear weakly basic solutions (pH 7.6 or 7.4), we then formed the hydrogels by adding enzymes (alkaline phosphatase).

For a further data set, the system named is HeLa cells. Briefly: cells. Format: cell-based. The following applies: 72 hours at 37° C., MTT; read-out: IC50, HeLa cell viability. As for the experimental part:
We seeded […] (cells/well) of health HeLa cells into 96-well plate with 100 μL of MEM medium supplemented with 10% fetal bovine serum (FBS), 100 U/mL penicillin and 100 mg mL21 streptomycin. The incubation at 37° C. and 5% CO2 for 12 hours allowed HeLa cells to attach the bottom of 96-well plate. Then we replaced the medium by another 100 μL of growth medium that contained serial diluents of our compounds (0.5% DMSO) and then incubated the cells at 37° C. and 5% CO2 for additional 72 hours. During the measurement of proliferation for HeLa cells, which were assayed into three days, we added 10 μL of (3-(4,5-Dimethylthiazol-2-yl)-2,5-diphenyltetrazolium bromide (MTT, 0.5 mg/mL) into the assigned wells in their corresponding day every 24 hours, which was followed by adding 100 μL of 0.1% sodium dodecyl sulfate (SDS) 4 hours later. Then we collected the assay results after another 24 hours incubation. Since the mitochondrial reductase in living cells reduced MTT to purple fomazan, the absorbance at 595 nm of the whole solution was finally measured by DTX 880 Multimode Detector. With MEM medium as blank and untreated HeLa cells as control, we measure each concentration of these compounds in triplicate. The IC50 values of our hydrogelators were read from their activity curves (with the measurement of 8 different concentrations) in day 3.

Another data set deals with T1, COX-1 (ovine) enzyme (Ovis aries, UniProt P05979).
T1 construct: purchased Cayman Chemical 700100
T1 sequence (P05979 25-600): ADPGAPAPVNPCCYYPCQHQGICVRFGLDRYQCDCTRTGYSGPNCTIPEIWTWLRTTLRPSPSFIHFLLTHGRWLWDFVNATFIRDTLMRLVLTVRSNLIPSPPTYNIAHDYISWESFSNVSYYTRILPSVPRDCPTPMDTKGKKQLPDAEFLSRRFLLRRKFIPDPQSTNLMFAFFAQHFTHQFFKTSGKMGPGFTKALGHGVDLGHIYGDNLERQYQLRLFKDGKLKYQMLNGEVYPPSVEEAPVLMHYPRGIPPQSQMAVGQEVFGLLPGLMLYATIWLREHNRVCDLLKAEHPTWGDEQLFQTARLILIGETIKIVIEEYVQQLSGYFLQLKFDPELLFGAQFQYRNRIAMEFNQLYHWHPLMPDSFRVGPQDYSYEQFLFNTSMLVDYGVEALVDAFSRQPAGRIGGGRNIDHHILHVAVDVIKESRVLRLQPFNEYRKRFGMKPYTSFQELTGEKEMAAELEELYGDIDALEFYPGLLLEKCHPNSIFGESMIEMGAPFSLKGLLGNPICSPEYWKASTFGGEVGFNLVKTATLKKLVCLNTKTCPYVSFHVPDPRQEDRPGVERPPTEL
The experiment in a line: COX Fluorescent Inhibitor Screening Assay, COX-1. Format: biochemical. The following applies: read-out: IC50 for inhibiting COX-1 enzyme. How it is done:
To study the drug efficacies of NSAID containing hydrogelators, here we used ‘COX Fluorescent Inhibitor Screening Assay Kit’ (700100; Cayman Chemical) to do in vitro inhibition assays for Npx and Npx containing hydrogelors 1, 2, 3, 4, 5, and 6. Each compound was tested by COX-1 (ovine) enzyme and COX-2 (human recombinant) enzyme separately in 96 well black assay plates. By utilizing the peroxidase component of COXs, we monitored the reaction between PGG2 and ADHP (10-acetyl-3,7-dihydroxyphenoxazine), which produced highly fluorescent compound resorufin. This resorufin can be easily analyzed by multimode detector with an excitation wavelength of 530-540 nm and an emission wavelength of 585-595 nm. All the compounds are assayed in triplicate. After the combination of 10 μl of inhibitors, 10 μl of Heme solution, 10 μL of fluorometric substrate, 10 μl of enzyme (either COX-1 or COX-2), and 150 μl of assay buffer, we quickly add 10 μl of arachidonic acid solution to initiate the reaction. Then we read the plate exactly after two minutes incubation at room temperature. In this experiment, we also measure the blank data without enzyme and inhibitors, and the control data without inhibitors. The IC50 values of these hydrogelators were read from their activity curves (FIG. 18), which were measured with 5 different concentrations of these hydrogelators (dissolved in DMSO).

Data set [2] can be described thus: rheological measurement of Npx containing hydrogels. The class given is physicochemical. The following applies: hydrogel 0.8 wt %; for storage modulus G′: 6.28 rad/s. As for the experimental part: Rheological tests were conducted on TA ARES G2 rheometer with TA Orchestrator Software. 25 mm cone-plate was used during the experiment. 0.2 mL of hydrogel sample was placed on the cone-plate.
The measurement performs at the frequency of 6.28 rad/s (0.1 to 10% strain, frequency=10 rads^−1, 10 points per decade). Sweep mode is “log” and temperature was carried out at 25° C. The critical strain (γc) value was determined from the storage-strain profiles of the hydrogel sample. The strain applied to the hydrogel sample increased from 0.1 to 100% (10 rad/s and 25° C.). Over a certain strain, a drop in the elastic modulus was observed, and the strain amplitude at which storage moduli just begins to decrease by 5% from its maximum value was determined and taken as a measure of the critical strain of the hydrogels, which correspond to the breakdown of the cross-linked network in the hydrogel sample.
The frequency ranges from 200 rad/s to 0.1 rad/s, depending on the viscoelastic properties of each sample. A suitable strain was used to ensure the linearity of dynamic viscoelasticity.

Data set [3] is described as follows: in vitro release of hydrogelators from hydrogels. The class given is physicochemical. The following applies: 0.8 wt % hydrogel, PBS pH 7.4, 37° C., after 24 hours. As for the experimental part:
After studying their drug efficacies, the sustained release of Npx-containing hydrogelators from 0.8 wt % of hydrogels was studied. We incubated 100 μL of hydrogels at 37° C. for 24 hours with 100 μL of PBS buffer solution (pH 7.4), which is refreshed and monitored at 1 h, 2 h, 4 h, 8 h, 12 h, and 24 h. […] After 24 hours, hydrogel 1 slowly and steadily released 6.5% of the hydrogelator. […] Hydrogels 5 and 6 release 35.8% and 31.7% of hydrogelators after 24 h.
To illustrate the in vitro release profile of hydrogelators, we prepared 100 μL of the hydrogels formed by 1 (0.8 wt %, pH 4.0), 2 (0.8 wt %, pH 7.6), 3 (0.8 wt %, pH 7.6), 4 (0.8 wt %, pH 7.6), 5 (0.8 wt %, pH 7.0), and 6 (0.8 wt %, pH 7.0). With the addition of PBS buffer (100 μL, pH 7.4) onto the surface of hydrogels, the gels were incubated at 37° C. for 24 hours. The release solutions (100 μL) were taken and refreshed at […], 2 h, 4 h, 8 h, 12 h, and 24 h, which were detected by analytical HPLC at 276 nm for the quantities of released Npx containing hydrogelators 1, 2, 3, 4, 5, and 6.

A further data set addresses COX-2 (Homo sapiens, UniProt P35354). Briefly: COX-2 (μM). From the text: (§1) Table printed on a drawing sheet, Figure 7
Head of the field: COX-2 (μM)
(§2) First copying reader's note: The head cell at top left is split by a diagonal line (IC50 for the columns, Hydrogel for the rows); the footnote for the mark ^a is not printed on the sheet.
Where the first naming reader finds the target: head: COX-2 (μM)

The test system of the next data set is COX-1. The experiment in a line: COX-1 (μM).
Source text: as §1
Head of the field: COX-1 (μM)
as §2
Where the first naming reader finds the target: head: COX-1 (μM)

Data set [4] in a line: toxicity and relative weight of treated mice. The class given is in vivo, Balb/c mice. The following applies: hydrogel, single intratumoral injection, 14 days.

COX-2, sequence (P35354 18-604 limits assumed): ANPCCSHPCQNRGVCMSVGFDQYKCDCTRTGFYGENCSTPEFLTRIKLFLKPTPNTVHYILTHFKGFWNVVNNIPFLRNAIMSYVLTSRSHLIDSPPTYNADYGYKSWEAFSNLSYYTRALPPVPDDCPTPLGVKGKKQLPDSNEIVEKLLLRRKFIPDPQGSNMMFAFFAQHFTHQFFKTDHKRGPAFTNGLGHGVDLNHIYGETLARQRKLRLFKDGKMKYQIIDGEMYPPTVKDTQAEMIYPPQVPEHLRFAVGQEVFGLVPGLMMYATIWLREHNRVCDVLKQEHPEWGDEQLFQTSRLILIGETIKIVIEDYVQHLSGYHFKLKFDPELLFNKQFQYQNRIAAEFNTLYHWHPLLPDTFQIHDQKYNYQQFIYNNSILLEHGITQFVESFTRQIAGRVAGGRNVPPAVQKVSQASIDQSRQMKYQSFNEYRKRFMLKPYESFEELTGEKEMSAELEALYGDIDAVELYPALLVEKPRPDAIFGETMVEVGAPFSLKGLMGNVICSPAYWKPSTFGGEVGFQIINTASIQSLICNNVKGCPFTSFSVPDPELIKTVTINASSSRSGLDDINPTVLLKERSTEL

As for `CC(=O)O[C@H]1C(=O)[C@@]2(C)[C@H]([C@H](OC(=O)c3ccccc3)[C@]3(O)C[C@H](OC(=O)[C@H](OC(=O)CCC(=O)NCCCC[C@@H](NC(=O)[C@@H](Cc4ccccc4)NC(=O)[C@@H](Cc4ccccc4)NC(=O)Cc4ccc5ccccc5c4)C(=O)N[C@H](Cc4ccc(OP(=O)(O)O)cc4)C(=O)O)[C@@H](NC(=O)c4ccccc4)c4ccccc4)C(C)=C1C3(C)C)[C@]1(OC(C)=O)CO[C@@H]1C[C@@H]2O` [19b, 2-(Naphthalen-2-yl)acetyl-(D)-Phe-(D)-Phe-(D)-Lys(Taxol)-(D)-Tyr phosphate] ({Acetyl(2-naphthyl)}-[dF][dF][dK](Paclitaxel(2'-O-succinyl))[d(pY)]-OH), the solubility result in data set [1] is recorded as “relatively good solubility”. In addition, the half-inhibitory concentration (IC50) with HeLa cells was determined as 0.0619 µM.
For `COc1ccc2cc([C@H](C)C(=O)NCCCC[C@@H](NC(=O)[C@@H](Cc3ccccc3)NC(=O)[C@H](N)Cc3ccccc3)C(=O)O)ccc2c1` [compound 5, D-Phe-D-Phe-D-Lys(naproxen)], the IC50 on COX-1 (ovine) enzyme worked out at 476 µM.
As to `COc1ccc2cc([C@H](C)C(=O)N[C@H](Cc3ccccc3)C(=O)N[C@H](Cc3ccccc3)C(=O)O)ccc2c1` [compound 1, Naproxen-D-Phe-D-Phe], in data set [2], the critical strain stood at 1.0% and the “storage modulus G′” value is 5.3×10^4 Pa. In addition, in data set [3], the “hydrogelator released from hydrogel” value is reported as 6.5%. Besides, the IC50 at COX-1 (ovine) enzyme was 854 µM.
Take `COc1ccc2cc([C@H](C)C(=O)N[C@H](Cc3ccccc3)C(=O)N[C@H](Cc3ccccc3)C(=O)N[C@H](CCCCN)C(=O)N[C@H](Cc3ccc(O)cc3)C(=O)O)ccc2c1` [compound 4, Npx-ffky] (Naproxen-[dF][dF][dK][dY]-OH): in data set [2], the critical strain amounted to 5.5% and the “storage modulus G′” value was 1.5×10^2 Pa. In addition, in data set [3], the “hydrogelator released from hydrogel” value was 19.8%.
For `COc1ccc2cc([C@H](C)C(=O)N[C@@H](Cc3ccccc3)C(=O)N[C@@H](Cc3ccccc3)C(=O)N[C@@H](Cc3ccc(O)cc3)C(=O)O)ccc2c1` [L-2, Naproxen-L-Phe-L-Phe-L-Tyr], the half-inhibitory concentration (IC50) came to 144 µM at COX-2 and 294 µM in the data set on COX-1.
On to `COc1ccc2cc([C@H](C)C(=O)NCCCC[C@@H](NC(=O)[C@@H](Cc3ccccc3)NC(=O)[C@H](N)Cc3ccccc3)C(=O)N[C@H](Cc3ccc(O)cc3)C(=O)O)ccc2c1` [compound 6, D-Phe-D-Phe-D-Lys(naproxen)-D-Tyr] (H-[dF][dF][dK](Naproxen)[dY]-OH), for which the IC50 on COX-1 (ovine) enzyme stood at 367 µM.
Take `CC(=O)O[C@H]1C(=O)[C@@]2(C)[C@H]([C@H](OC(=O)c3ccccc3)[C@]3(O)C[C@H](OC(=O)[C@H](OC(=O)CCC(=O)NCCCC[C@@H](NC(=O)[C@@H](Cc4ccccc4)NC(=O)[C@@H](Cc4ccccc4)NC(=O)Cc4ccc5ccccc5c4)C(=O)N[C@H](Cc4ccc(O)cc4)C(=O)O)[C@@H](NC(=O)c4ccccc4)c4ccccc4)C(C)=C1C3(C)C)[C@]1(OC(C)=O)CO[C@@H]1C[C@@H]2O` [20b] ({Acetyl(2-naphthyl)}-[dF][dF][dK](Paclitaxel(2'-O-succinyl))[dY]-OH): the solubility entry in data set [1] is on record as “relatively good solubility”. The “side effect from relative weights of mice” value in data set [4] is “limit the side effect of Taxol to the mice”. Besides, the concentration for half-maximal inhibition (IC50) in the data set with HeLa cells amounted to 0.106 µM.
`COc1ccc2cc([C@H](C)C(=O)N[C@@H](Cc3ccccc3)C(=O)N[C@@H](Cc3ccccc3)C(=O)O)ccc2c1` [L-1, Naproxen-L-Phe-L-Phe]: the results for the IC50 against COX-2 and in the data set with COX-1 were 715 µM and 986 µM, respectively.
